# Source: ChEMBL document CHEMBL1121896, “Potential histamine H2-receptor blockers. 3- and 2-indole derivatives as immobile analogues of tautomeric forms of cimetidine” (J Med Chem, 1981)
# Activity calls are given as the source filed them. The calls are words filed in the database; no cut-off is given here.
# How the values were obtained:
# [1] = molecular target: Histamine H2 receptor (Cavia porcellus) (UniProt P47747); test: Competitive antagonism of compound at histamine H2 receptor compared to 4-methylhistamine induced chronotropic response in guinea pig atria; + Potency ratio greater than 1.0; assay type: functional
# Chain of Histamine H2 receptor (Cavia porcellus) (P47747 whole entry): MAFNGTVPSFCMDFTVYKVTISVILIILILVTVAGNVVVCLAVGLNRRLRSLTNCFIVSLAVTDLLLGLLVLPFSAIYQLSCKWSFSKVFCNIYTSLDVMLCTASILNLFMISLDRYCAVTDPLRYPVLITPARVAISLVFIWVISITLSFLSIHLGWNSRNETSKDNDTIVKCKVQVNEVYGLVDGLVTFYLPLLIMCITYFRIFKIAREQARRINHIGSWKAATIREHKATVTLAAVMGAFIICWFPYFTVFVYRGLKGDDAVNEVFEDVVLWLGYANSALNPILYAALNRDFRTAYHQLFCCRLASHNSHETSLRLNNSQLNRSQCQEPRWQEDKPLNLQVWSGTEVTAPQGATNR
# [2] = molecular target: Histamine H2 receptor (Cavia porcellus) (UniProt P47747); test: Ratio of potency (3*10e-5M) to that of agonist for histamine H2 receptor, in an assay for guinea pig atria chronotropic response; assay type: functional
# [3] = molecular target: Histamine H2 receptor (Cavia porcellus) (UniProt P47747); test: Competitive antagonism of compound at histamine H2 receptor compared to 4-methylhistamine induced chronotropic response in guinea pig atria expressed as potency ratio; Not significantly greater than 1.0 (Inactive); assay type: functional
# [4] = molecular target: Histamine H2 receptor (Cavia porcellus) (UniProt P47747); test: Competitive antagonism of compound at histamine H2 receptor compared to 4-methylhistamine as effect on resting heart rate in guinea pig atria expressed as potency ratio; (Inactive); assay type: functional, tissue-based
# [5] = molecular target: Histamine H2 receptor (Cavia porcellus) (UniProt P47747); test: Competitive antagonism of compound at histamine H2 receptor compared to 4-methylhistamine induced chronotropic response in guinea pig atria; nonparallel shift in dose response curve; assay type: functional; conditions: filed as antagonist
# [6] = molecular target: Histamine H2 receptor (Cavia porcellus) (UniProt P47747); test: Ratio of potency (3*10e-5M) to that of agonist for Histamine H2 receptor, in an assay for guinea pig atria chronotropic response; assay type: functional
# [7] = molecular target: Histamine H2 receptor (Cavia porcellus) (UniProt P47747); test: Competitive antagonism of compound at histamine H2 receptor compared to 4-methylhistamine as effect on resting heart rate in guinea pig atria expressed as potency ratio; Inactive; assay type: functional, tissue-based
smiles,measurement,setting,value
CN/C(=N\CCSCc1nc[nH]c1C)NC#N,Antagonism,[1],> 1
same,Potency ratio,[2],36.8
C/N=C(\NC#N)NCCSCc1c[nH]c2ccccc12,Antagonism,[3],inactive
same,Potency ratio,[2],0.84
C/N=C(\NC#N)NCCSCc1cc2ccccc2[nH]1,Antagonism,[4],inactive
same,Potency ratio,[2],1.76
C/N=C(\S)NCCSCc1c[nH]c2ccccc12,Antagonism,[3],> 1
same,Potency ratio,[2],1.06
CS/C(=N\CCSCc1cc2ccccc2[nH]1)NC#N,Potency ratio,[2],6.04
same,Antagonism,[5],Non-competitive antagonist
S=C(NCCSCc1c[nH]c2ccccc12)Nc1ccccc1,Antagonism,[3],inactive
same,Potency ratio,[6],1.16
CS/C(=N\CCSCc1c[nH]c2ccccc12)NC#N,Antagonism,[1],> 1
same,Potency ratio,[2],2.56
S=C(NCCSCc1cc2ccccc2[nH]1)Nc1ccccc1,Antagonism,[7],inactive
same,Potency ratio,[2],2.54
C/N=C(\S)NCCSCc1cc2ccccc2[nH]1,Antagonism,[1],> 1
same,Potency ratio,[2],3.35
